Publication PMC11607671, “Antiviral activity of cathelicidins against porcine epidemic diarrhea virus (PEDV): Mechanisms, and efficacy” (Virus Research, 2024)

Tests used:
PEDV [1] = experiment: Transmission electron microscopy of peptide-treated virus; design: species or system Porcine epidemic diarrhea virus; details: PEDV treated with 10 µM peptide, negative stain, Fig. 9; for effect on virus morphology / membrane (TEM): one minute at 37 °C
Description: PEDV was treated with CATH-B1, LL-37, PMAP-23, and PMAP-36 for one minute at 37 °C. Subsequently, 10 µL of the sample was placed onto a freshly carbon-coated copper grid. The grids were washed 3 times with PBS and then fixed with 1% glutaraldehyde (Sigma-Aldrich, St. Louis, MO, USA) in PBS for 10 min. Following this fixation, the grids were rinsed 2 times with PBS and 4 times with MilliQ water. They were stained for 5 min in Uranyl Acetate (pH 7) then briefly washed with methylcellulose/uranyl acetate (pH 4) and incubated for 5 min on ice. Finally, the grids were looped out of the solution and air-dried. The samples were subsequently examined in a JEM1010 (JEOL) equipped with a Veleta 2k × 2k CCD camera (EMSIS, Munster, Germany).
Fig. 9 The effect of AMPs on the morphology of the virus. PEDV (MOI=0.3), which was pre-incubated with peptides. TEM images were taken of PEDV alone (A–D), PEDV treated with 10 µM LL-37 (E-H), PEDV treated with 10 µM CATH-B1 (I-L), PEDV treated with 10 µM PMAP-23 (M, N), and PEDV treated with 10 µM PMAP-36 (O, P). […] Micrographs were captured with a pixel size of 0,5 nm and analyzed visually using ImageJ. The micrographs are representative of observations from three independent experiments. Scale bars represent 100 nm.

PEDV-GFP [2] = experiment: Co-incubation antiviral assay of the extended AMP panel and of FL LL-37; type: cell-based, Porcine epidemic diarrhea virus; details: FC; for prevention of PEDV-GFP entry into Vero cells, extended AMP panel, in words: co-incubation with PEDV-GFP, 1 and 5 µM, 3 h, two independent experiments in duplicate, Fig. 5
Description: (§1) In order to determine the effect of AMPs on the infectivity of PEDV, Vero cells (5 × 10^5 per well) were seeded in 12-well plates and cultured overnight at 37 °C, 5% CO2. In a co-incubation of virus and AMPs experiments (Fig. 2A), the mixture of AMPs (0–10 µM) and PEDV-GFP (MOI= 0.3) in a 1 mL volume of DMEM (P/S + 10% FCS) was added to the cells and incubated at 37 °C. After 2 h, the supernatant was replaced with fresh DMEM (P/S + 10% FCS) and incubated for 24 h. Subsequently, the cells were washed 2 times with flow cytometry buffer (500 mL PBS+ 10 mL FCS+ 250 µL of 10% NaN3) and were imaged with an EVOS M5000 Imaging System for semi-quantitative determination of infectivity. Eventually, cells were carefully detached by 2.5% trypsin, stained with ViaKrome 808 fixable viability dye (1:1000), and incubated for 30 min at 4 °C. Following washing, the cells were fixed using 50 µL of 4% PFA for 10 min, and a minimum of 1 × 10^5 cells were acquired using the CytoFLEX LX Flow Cytometer (FC)(Beckman Coulter, USA). Data was analyzed using FlowJo software v.10.6 (Flowjo LCC, Ashland, OR, USA).
This extended panel of AMPs encompassed chicken-derived peptides (D-CATH-2, l-CATH-2), mouse-derived peptide (CRAMP), horse-derived peptides (eCATH-1, eCATH-3), parrot-derived peptides (ER2, ER3, AG3), and synthetic peptides (CR165, CR174), all of which were readily accessible within our laboratory. As previously described, these AMPs were co-incubated with PEDV.
Fig. 5 Antiviral effects of a diverse group of AMPs on PEDV infection. Vero cells were incubated for 3 h with a combination of PEDV-GFP and AMPs, as described previously. FC was utilized to assess the inhibitory impact of AMPs.
Figure S4. The antiviral activity of FL LL-37 (fluorogenic LL-37 ) and unlabeled LL-37. Peptides were co-incubated at 1 and 5 µM with PEDV and added to Vero cells for 3 h, followed by FC analysis to examine the infectivity.

PEDV-GFP [3] = experiment: Co-incubation antiviral assay, PEDV-GFP MOI=0.3, Vero cells (fluorescence microscopy and flow cytometry); type: cell-based, Porcine epidemic diarrhea virus
Description: as §1
Fig. 2 Effect of AMPs on the infectivity of PEDV (MOI=0.3). A) Experimental set-up of the ‘co-incubation assay’; Vero cells were subjected to 2 h exposure to a combination of AMPs and PEDV-GFP. Afterward, the supernatant was replaced, and the cells were incubated for an additional 24 h B) Fluorescent microscopy (20 × magnification) was performed to visualize the fluorescence signal of GFP in the presence of 1, 5, and 10 µM AMPs. The cell-only sample consists exclusively of cells while the no-peptide sample contains only PEDV-GFP, with no peptides present.
Fig. 3 Antiviral activity of AMPs as determined by flow cytometry (FC). A) The percentage of GFP-positive cells following a 2 h incubation with a combination of PEDV and AMPs. […] The values reported here depict the average ± SD derived from three independent experiments performed in duplicate. * p < 0.05; ** p < 0.01.

PEDV-GFP [4] = experiment: Pre-incubation (pre-treatment) antiviral assay; type: cell-based, Porcine epidemic diarrhea virus; details: Vero cells treated 3 h with AMPs (0-10 µM), washed, then infected with PEDV-GFP MOI 0.3 for 2 h; FC; Fig. 6B, C
Description: The effect of AMPs on viral infectivity was also determined when they were added to Vero-cells before (pre-treatment) or after (post-treatment) infection. In the pre-treatment assay (Fig. 6A), Vero cells were treated with different concentrations of CATH-B1 and LL-37 peptides (ranging from 0 to 10 µM) for various durations (1, 2, 3, 4, and 24 h) at 37 °C. Subsequently, the cells were washed 2 times with PBS and infected with PEDV-GFP at an MOI of 0.3 for 2 h
In post-incubation assays (Fig. 7A), cells were initially exposed to the virus for 2 h, washed 2times with PBS and subsequently treated with AMPs for 3 h Both for pre- and post-infection assays, after the respective incubation periods, the cells were assessed using fluorescence microscopy and quantified using FC as described above.
Fig. 6 Effects of AMPs in pre-incubation assay. A) Experimental set-up of pre-incubation experiment. B) FC was employed to quantify the percentage of GFP-positive cells during pre-incubation. […] The reported values represent the mean ± SD derived from three independent experiments performed in triplicate. * p < 0.05; ** p < 0.01.

PEDV [5] = experiment: Peptide-virus interaction assay with Capto Core 700 beads; type: cell-based, Porcine epidemic diarrhea virus; details: Fig. 8
Description: In order to determine if CATH-B1 and LL-37 physically interact with PEDV, Capto Core 700 beads (GE Healthcare Life Sciences, Chicago, IL, USA) were used to selectively eliminate unbound AMPs. PEDV were pre-incubated with or without CATH-B1/LL-37 in Opti-MEM medium, and Capto Core 700 beads were added, followed by a 1 h incubation at 4 °C while slowly rotating. After centrifugation, supernatants were collected and applied to the cells. To make sure the AMP was removed effectively, we tested samples with peptides but no virus using the same process. The collected supernatants were used to inoculate cells, and the number of infected cells was determined using the described method.
Fig. 8 Interactions between CATH-B1 and LL-37 with PEDV. CATH-B1/LL-37 were pre-incubated with the virus, and subsequently, the peptide and virus were separated using Capto Core beads. The supernatant containing the separated virus was then employed to infect Vero cells. […] The data is presented as the mean ± SEM of three independent experiments in duplicate, each with triplicate samples. **** p < 0.0001.

PEDV [6] = experiment: Co-incubation antiviral assay, PEDV MOI=1, Vero cells; type: cell-based, Porcine epidemic diarrhea virus; details: PEDV MOI=1, co-incubation, Vero cells, FC; Fig. 4B
Description: as §1
Fig. 4 The inhibitory effect of AMPs on PEDV at MOI=1. A) Fluorescence microscopy image was captured at 20 × magnification to visualize the GFP fluorescence signal in Vero cells following co-incubation of AMPs and PEDV at MOI=1. B) The percentage of GFP-positive cells was determined by FC after 3 h co-incubation of PEDV and AMPs. C) The fluorescence intensity of GFP across three different concentrations of LL-37 was illustrated through the FC histogram. […] The reported values in 4A represent the mean ± SD of three independent experiments performed in duplicate **** p < 0.0001.

GRFRRLRKKTRKRLKKIGKVLKWIPPIVGSIPLGCG [PMAP-36, porcine cathelicidin, 36 residues]
effect on virus morphology / membrane (TEM) (PEDV [1]): structure remained unchanged

ISRLAGLLRKGGEKIGEKLKKIGQKIKNFFQKLVPQPE [CRAMP, mouse-derived peptide, 38 residues]
prevention of PEDV-GFP entry into Vero cells, extended AMP panel, in words (PEDV-GFP [2]): failed to neutralize PEDV

PIRNWWIRIWEWLNGIRKRLRQRSPFYVRG HLNVTSTPQP (PIRNWWIRIWEWLNGIRKRLRQRSPFYVRGHLNVTSTPQP) [CATH-B1, chicken cathelicidin, 40 residues]
virus aggregation (TEM) (PEDV [1]): extensive virus aggregation
effect on virus morphology / membrane (TEM) (PEDV [1]): significant membrane damage
percentage of GFP-positive cells (FC), co-incubation (PEDV-GFP [3]; 10 µM peptide, PEDV-GFP MOI=0.3, 2 h co-incubation then 24 h, no-peptide control approximately 35%, three independent experiments in duplicate, Fig. 3A): 1–2%
infected cells by fluorescent microscopy, co-incubation (PEDV-GFP [3]; PEDV-GFP MOI=0.3, 5 and 10 µM peptide, 2 h co-incubation then 24 h, compared to control without peptide, Fig. 2B): reduced numbers of infected cells
antiviral activity in pre-incubation assay, in words (PEDV-GFP [4]): strong activity only at 10 μM
virus infectivity, peptide pre-incubated with beads before PEDV introduction (PEDV [5]; Capto Core 700 beads, Vero cells): minimal effects on virus infectivity
virus infectivity, peptide incubated with PEDV without beads (PEDV [5]; no Capto Core 700 beads, Vero cells): a decrease in virus infectivity
antiviral activity when peptide is combined with virus and beads (PEDV [5]; peptide + PEDV, then Capto Core 700 beads 1 h at 4 °C, supernatant applied to Vero cells): remained unchanged
antiviral effect at MOI=1, in words (PEDV [6]): diminished as the MOI increased

RIIDLLWRVRRPQKPKFVTVWVR [PMAP-23, porcine cathelicidin, 23 residues]
effect on virus morphology / membrane (TEM) (PEDV [1]): structure remained unchanged

RRWVQRWIRRWRKVAAARRWVQRWIRRWRPKV [CR-174, non-naturally occurring synthetic (designed) AMP]
prevention of PEDV-GFP entry into Vero cells, extended AMP panel, in words (PEDV-GFP [2]): unsuccessful in significantly preventing PEDV-GFP entry

RRWVQRWIRWVQRWVR [CR-165, non-naturally occurring synthetic (designed) AMP]
prevention of PEDV-GFP entry into Vero cells, extended AMP panel, in words (PEDV-GFP [2]): unsuccessful in significantly preventing PEDV-GFP entry

Tamra-(ahx)-LLGDFFRKSKEKIGKEFKRIVQRIKDFLRNLVPRTES [FL LL-37]
effect of fluorogenic labelling on antiviral activity (PEDV-GFP [2]; 1 and 5 µM co-incubated with PEDV, Vero cells 3 h, compared with unlabeled LL-37, Fig. S4): no effect on the antiviral activity
cellular localization (confocal microscopy) (Vero cells; 1 and 5 µM, 1 and 3 h incubation, Vero cells, fixed, DAPI, Fig. 10B): predominant intracellular localization
uptake or attachment to Vero cells (FC) (Vero cells; 3 h incubation with Vero cells, washing, FC fluorescence, two concentrations, unlabeled LL-37 as negative control, Fig. 10A): substantial concentration-dependent uptake or attachment
uptake at 4 °C (FC) (Vero cells; Vero cells at 4 °C versus 37 °C, 1 and 5 µM, 30, 60, 180 min, Fig. S5): significant reduction in the uptake
